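48-hour exposure; five concentrations; linearly interpolated endpoints. Here, GI50 denotes the concentration required for 50% inhibition of growth.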 Active and inactive are the calls of the source. Cut-off read from the data, not from the text of the source: active = GI50 up to about 1.1 µM and inactive = higher.
Columns and labels:
Experiment in all cases: NCI tumour cell line growth inhibition, 48 h
[1] = test system: SF-268
[2] = test system: SF-295
[3] = test system: SNB-78
[4] = test system: UACC-62
[5] = test system: OVCAR-4
[6] = test system: NCI-H460
[7] = test system: SK-MEL-28
[8] = test system: OVCAR-5
[9] = test system: SW-620
[10] = test system: UO-31
[11] = test system: LXFL 529
[12] = test system: MOLT-4
[13] = test system: U-251
[14] = test system: UACC-257
[15] = test system: A549
[16] = test system: KM-20L2
[17] = test system: RPMI-8226
[18] = test system: EKVX
[19] = test system: A498
[20] = test system: SR
[21] = test system: M19-MEL
[22] = test system: SNB-19
[23] = test system: NCI-H522
[24] = test system: CAKI-1
[25] = test system: NCI-H23
[26] = test system: NCI-H226
[27] = test system: SF-539
[28] = test system: HCT-116
[29] = test system: DMS-114
[30] = test system: OVCAR-8
[31] = test system: SN12C
[32] = test system: SK-MEL-2
[33] = test system: SK-OV-3
[34] = test system: 786-0
[35] = test system: SK-MEL-5
[36] = test system: TK-10
[37] = test system: RXF 393
[38] = test system: ACHN
[39] = test system: M14
[40] = test system: HCT-15
[41] = test system: HT-29
[42] = test system: HOP-62
[43] = test system: K562
[44] = test system: HOP-92
[45] = test system: IGROV-1
[46] = test system: LOX IMVI
[47] = test system: KM12
[48] = test system: OVCAR-3
[49] = test system: HL-60
[50] = test system: DMS-273
[51] = test system: HCC 2998
[52] = test system: CCRF-CEM
[53] = test system: T47D
[54] = test system: COLO 205
[55] = test system: MDA-N
[56] = test system: DU-145
[57] = test system: Malme-3M
[58] = test system: MDA-MB-435
[59] = test system: MDA-MB-231
[60] = test system: Hs-578T
[61] = test system: NCI/ADR-RES
[62] = test system: PC-3
[63] = test system: MCF7
[64] = test system: SNB-75
[65] = test system: BT-549

CCN(CC)CCNc1ccc(CO)c2sc3ccccc3c(=O)c12 [HYCANTHONE]
GI50 [1]: 8.89 µM (inactive)
GI50 [2]: 7.14 µM (inactive)
GI50 [3]: 12.7 µM (inactive)
GI50 [4]: 19.5 µM (inactive)
GI50 [5]: 5.37 µM (inactive)
GI50 [6]: 4.04 µM (inactive)
GI50 [7]: 16.8 µM (inactive)
GI50 [8]: 12.5 µM (inactive)
GI50 [9]: 5.48 µM (inactive)
GI50 [10]: 6.58 µM (inactive)
GI50 [11]: 12.7 µM (inactive)
GI50 [12]: 2.79 µM (inactive)
GI50 [13]: 10.5 µM (inactive)
GI50 [14]: 15.8 µM (inactive)
GI50 [15]: 6.85 µM (inactive)
GI50 [16]: 5.37 µM (inactive)
GI50 [17]: 10.8 µM (inactive)
GI50 [18]: 13.7 µM (inactive)
GI50 [19]: 8.22 µM (inactive)
GI50 [20]: 3.18 µM (inactive)
GI50 [21]: 13 µM (inactive)
GI50 [22]: 9.51 µM (inactive)
GI50 [23]: 4.04 µM (inactive)
GI50 [24]: 5.92 µM (inactive)
GI50 [25]: > 10 µM (inactive)
GI50 [26]: 13.9 µM (inactive)
GI50 [27]: 11.2 µM (inactive)
GI50 [28]: 4.8 µM (inactive)
GI50 [29]: 11.5 µM (inactive)
GI50 [30]: 6.37 µM (inactive)

C/N=C(/NC)N(C)c1nc(=[N+](C)C)ss1.[O-][Cl+3]([O-])([O-])[O-]
GI50 [1]: > 100 µM (inactive)
GI50 [31]: > 100 µM (inactive)
GI50 [2]: > 100 µM (inactive)
GI50 [3]: 82.8 µM (inactive)
GI50 [32]: > 100 µM (inactive)
GI50 [33]: > 100 µM (inactive)
GI50 [34]: > 100 µM (inactive)
GI50 [4]: > 100 µM (inactive)
GI50 [6]: > 100 µM (inactive)
GI50 [35]: > 100 µM (inactive)
GI50 [36]: > 100 µM (inactive)
GI50 [7]: > 100 µM (inactive)
GI50 [8]: > 100 µM (inactive)
GI50 [37]: > 100 µM (inactive)
GI50 [9]: > 100 µM (inactive)
GI50 [10]: > 100 µM (inactive)
GI50 [11]: > 100 µM (inactive)
GI50 [12]: 39.3 µM (inactive)
GI50 [38]: > 100 µM (inactive)
GI50 [13]: > 100 µM (inactive)
GI50 [39]: > 100 µM (inactive)
GI50 [40]: 92.7 µM
GI50 [14]: > 100 µM (inactive)
GI50 [41]: > 100 µM (inactive)
GI50 [15]: > 100 µM (inactive)
GI50 [42]: > 100 µM (inactive)
GI50 [43]: 31.2 µM (inactive)
GI50 [44]: 75 µM (inactive)
GI50 [45]: > 100 µM (inactive)
GI50 [46]: 78.9 µM (inactive)
GI50 [18]: > 100 µM (inactive)
GI50 [47]: > 100 µM (inactive)
GI50 [19]: 39.4 µM (inactive)
GI50 [48]: > 100 µM (inactive)
GI50 [20]: 55.5 µM (inactive)
GI50 [49]: 46 µM (inactive)
GI50 [22]: > 100 µM (inactive)
GI50 [23]: 56.4 µM (inactive)
GI50 [24]: 16.3 µM (inactive)
GI50 [25]: 74.1 µM (inactive)
GI50 [50]: 36.2 µM (inactive)
GI50 [26]: 59.3 µM (inactive)
GI50 [51]: > 100 µM (inactive)
GI50 [27]: > 100 µM (inactive)
GI50 [28]: 62.1 µM (inactive)
GI50 [52]: 61.9 µM (inactive)
GI50 [30]: > 100 µM (inactive)

O=C(NNC(=O)c1ccccc1S)c1ccccc1S [BIS(THIOSALICYL)HYDRAZIDE]
GI50 [1]: 11.2 µM (inactive)
GI50 [53]: 10.8 µM (inactive)
GI50 [31]: 13.6 µM (inactive)
GI50 [2]: 10.3 µM (inactive)
GI50 [32]: 43.9 µM (inactive)
GI50 [33]: > 25 µM (inactive)
GI50 [34]: 9.42 µM (inactive)
GI50 [4]: 9.27 µM (inactive)
GI50 [5]: 15.6 µM (inactive)
GI50 [54]: 11.1 µM (inactive)
GI50 [55]: 18.2 µM (inactive)
GI50 [6]: 9.29 µM (inactive)
GI50 [35]: 23 µM (inactive)
GI50 [36]: > 25 µM (inactive)
GI50 [7]: > 25 µM (inactive)
GI50 [8]: 12.4 µM (inactive)
GI50 [37]: 22.6 µM (inactive)
GI50 [9]: 11.6 µM (inactive)
GI50 [10]: 8.43 µM (inactive)
GI50 [56]: 20.6 µM (inactive)
GI50 [57]: 23.7 µM (inactive)
GI50 [12]: 7.11 µM (inactive)
GI50 [38]: 10.8 µM (inactive)
GI50 [58]: 14.6 µM (inactive)
GI50 [59]: > 25 µM (inactive)
GI50 [13]: 15.1 µM (inactive)
GI50 [39]: 10.3 µM (inactive)
GI50 [40]: 6.03 µM
GI50 [14]: 13.8 µM (inactive)
GI50 [41]: 8.47 µM (inactive)
GI50 [15]: 14.3 µM (inactive)
GI50 [42]: 15.9 µM (inactive)
GI50 [43]: 14.6 µM (inactive)
GI50 [60]: 45 µM (inactive)
GI50 [44]: > 25 µM (inactive)
GI50 [45]: 7.29 µM (inactive)
GI50 [61]: 11.3 µM (inactive)
GI50 [17]: 18.4 µM (inactive)
GI50 [46]: 9.84 µM (inactive)
GI50 [18]: 8.34 µM (inactive)
GI50 [47]: 24.5 µM (inactive)
GI50 [62]: 32.1 µM (inactive)
GI50 [19]: > 100 µM (inactive)
GI50 [48]: 9.14 µM (inactive)
GI50 [20]: 13.5 µM (inactive)
GI50 [49]: 8.79 µM (inactive)
GI50 [22]: 23.4 µM (inactive)
GI50 [23]: 0.0154 µM (active)
GI50 [24]: 6.93 µM (inactive)
GI50 [25]: 11.1 µM (inactive)
GI50 [26]: 15.5 µM (inactive)
GI50 [51]: 5.96 µM (inactive)
GI50 [27]: 11.7 µM (inactive)
GI50 [28]: 6.79 µM (inactive)
GI50 [63]: 10 µM (inactive)
GI50 [64]: 18 µM (inactive)
GI50 [65]: 9.38 µM (inactive)
GI50 [52]: 1.24 µM (inactive)
GI50 [30]: 12 µM (inactive)

From ChEMBL document CHEMBL1201862, “PubChem BioAssay data set” (2004)
